Key:
[1] = tested on: Madin Darby canine kidney cells (MDCK); test: Cytotoxicity, cell morphology; type: cell-based
[2] = tested on: human embryonic lung (HEL) fibroblasts; test: Cytotoxicity, cell morphology; type: cell-based; settings: HEL cells; minimum cytotoxic concentration altering cell morphology
[3] = tested on: human cytomegalovirus (HCMV) strain AD-169; test: Antiviral assay, HCMV AD-169 in HEL cells; type: cell-based; settings: compared with TDP/HDP (S)-HPMPC of ref [11]
[4] = tested on: Reovirus-1; test: Antiviral assay, Reovirus-1 in Vero cells; type: cell-based; settings: read-out: Antiviral activity: EC50 Reovirus-1 (Vero)
[5] = tested on: African green monkey cells (Vero); test: Cytotoxicity, cell morphology; type: cell-based
[6] = tested on: HIV-1 (IIIB); test: Anti-HIV-1 assay in CEM cells; type: cell-based, human immunodeficiency virus type 1; settings: compared with HDP–PMEA of ref [12]

Structure (SMILES) | Cytotoxicity Cell morphology (MCC) MDCK [1] | Cytotoxicity Cell morphology (MCC) (HEL) [2] | EC50 [4] | other results
CCOC(=O)C1=C[C@@H](OC(CC)CC)[C@H](NC(C)=O)[C@@H](N)C1 [Oseltamivir] | >100 μM | – | – | –
O=c1[nH]c(=O)n([C@H]2C[C@H](O)[C@@H](CO)O2)cc1/C=C/Br [Brivudin] | – | >150 μM | – | –
Nc1ccn(C[C@@H](CO)OCP(=O)(O)OCCOCCOCCOCCOCCOCCO)c(=O)n1 [Compound 16, 14-Hydroxy-3,6,9,12-tetraoxaheptadecyl ester of (S)-1-[3-hydroxy-2-(phophonomethoxy)propyl]cytosine] | – | – | – | Drop of activity against CMV versus analogous simple alkoxyalkyl ester [3]: 400- to 1000 fold
Nc1nc2c(ncn2COCCO)c(=O)[nH]1 [Acyclovir] | – | >222 μM | – | –
NC(=O)c1ncn([C@@H]2O[C@H](CO)[C@@H](O)[C@H]2O)n1 [Ribavirin, reference compound] | >100 μM | – | ≥ 174 µM | –
Nc1ccn(C[C@@H](CO)OCP(=O)(O)O)c(=O)n1.O.O [(S)-HPMPC, Cidofovir] | – | >317 μM | – | –
Nc1ncnc2c1ncn2CCOCP(=O)(OCCCCCCCCCCO)OCCCCCCCCCCO [Compound 5, Bis(10-Hydroxydecyl) ester of 9-[2-(phosphonomethoxy)ethyl]adenine] | – | – | > 34 µM | –
Nc1ncnc2c1ncn2CCOCP(=O)(OCCOCCCCCCCCCCO)OCCOCCCCCCCCCCO [Compound 9, Bis{2-[(10-Hydroxydecyl)oxy]ethyl} ester of 9-[2-(phosphonomethoxy)ethyl]adenine] | 29.7 μM | 148 μM | > 29.7 µM | Cytotoxicity Cell morphology (MCC) Vero [5]: 148 μM
Nc1nc(O)c2ncn(COC(CO)CO)c2n1 [Ganciclovir] | – | >392 μM | – | –
CCOCCOCCOCCOCCOCCOCCOP(=O)(O)COCCn1cnc2c(N)ncnc21 [Compound 12, 3,6,9,12,15,18-Hexaoxaeicosyl ester of 9-[2-(phosphonomethoxy)ethyl]adenine] | – | – | – | Loss of anti-HIV activity compared to HDP–PMEA [6]: > 10^7 fold
